System: GNS166 cells
Experiment: Label-free proteomics differential expression
Format: cell-based, human
Protocol: Proteomic studies were performed by the Proteomics Facility of the CIC bioGUNE by label-free relative quantification on nLC MS/MS. […] In both approaches, the top 20 enriched terms were plotted and the pathways were clustered using divisive hierarchical clustering based on pairwise Jaccard distances.

## C#CCN(Cc1cc2cc(OCCCN3CCCCC3)ccc2n1S(=O)(=O)c1ccccc1)C(=O)CCCCCCC(=O)NO [DDI]
Protein P27105 GN=STOM
  LogFC STOM_HUMAN: 1.045
Protein P27701 GN=CD82
  LogFC CD82_HUMAN: -1.866
Protein P27708
  Direction PYR1_HUMAN: Down
  LogFC PYR1_HUMAN: -0.3818
Protein P28161 GN=GSTM2
  LogFC GSTM2_HUMAN: 1.203
Protein P28340
  Direction DPOD1_HUMAN: Down
  LogFC DPOD1_HUMAN: -0.5649
Protein P28676 GN=GCA
  LogFC GRAN_HUMAN: 2.772
Protein P28906
  Direction CD34_HUMAN: Down
  LogFC CD34_HUMAN: -1.0921
Protein P29144 GN=TPP2
  LogFC TPP2_HUMAN: 0.5124
Protein P29279 GN=CCN2
  LogFC CCN2_HUMAN: 1.704
Protein P29317
  Direction EPHA2_HUMAN: Down
  LogFC EPHA2_HUMAN: -1.4702
Protein P30038 GN=ALDH4A1
  LogFC AL4A1_HUMAN: 0.9924
Protein P30043 GN=BLVRB
  LogFC BLVRB_HUMAN: 1.9711
Protein P30260 GN=CDC27
  LogFC CDC27_HUMAN: -0.6942
Protein P30281 GN=CCND3
  LogFC CCND3_HUMAN: 1.575
Protein P30419
  Direction NMT1_HUMAN: Down
  LogFC NMT1_HUMAN: -0.6586
Protein P30530
  Direction UFO_HUMAN: Down
  LogFC UFO_HUMAN: -2.709
Protein P30740
  Direction ILEU_HUMAN: Down
  LogFC ILEU_HUMAN: -0.3615
Protein P31350
  Direction RIR2_HUMAN: Down
  LogFC RIR2_HUMAN: -2.735
Protein P31689
  Direction DNJA1_HUMAN: Down
  LogFC DNJA1_HUMAN: -0.6634
Protein P31749 GN=AKT1
  LogFC AKT1_HUMAN: -0.2725
Protein P32780
  Direction TF2H1_HUMAN: Down
  LogFC TF2H1_HUMAN: -0.6552
Protein P33981 GN=TTK
  LogFC TTK_HUMAN: -1.092
Protein P36543 GN=ATP6V1E1
  LogFC VATE1_HUMAN: 1.641
Protein P36873 GN=PPP1CC
  LogFC PP1G_HUMAN: 0.989
Protein P36915 GN=GNL1
  LogFC GNL1_HUMAN: 0.9003
Protein P38432
  Direction COIL_HUMAN: Down
  LogFC COIL_HUMAN: -1.999
Protein P38571 GN=LIPA
  LogFC LICH_HUMAN: 4.157
Protein P38606 GN=ATP6V1A
  LogFC VATA_HUMAN: 1.1187
Protein P39060
  Direction COIA1_HUMAN: Down
  LogFC COIA1_HUMAN: -1.248
Protein P40925 GN=MDH1
  LogFC MDHC_HUMAN: 0.224
Protein P41091 GN=EIF2S3
  LogFC IF2G_HUMAN: 0.129
Protein P41214 GN=EIF2D
  LogFC EIF2D_HUMAN: -1.485
Protein P41226
  Direction UBA7_HUMAN: Down
  LogFC UBA7_HUMAN: -1.657
Protein P41236 GN=PPP1R2
  LogFC IPP2_HUMAN: 1.34
Protein P41240 GN=CSK
  LogFC CSK_HUMAN: -0.3935
Protein P42166 GN=TMPO
  LogFC LAP2A_HUMAN: -1.129
Protein P42167 GN=TMPO
  LogFC LAP2B_HUMAN: -0.9256
Protein P42224 GN=STAT1
  LogFC STAT1_HUMAN: 0.5798
Protein P42336 GN=PIK3CA
  LogFC PK3CA_HUMAN: -1.283
Protein P42345 GN=MTOR
  LogFC MTOR_HUMAN: -0.7122
Protein P42695 GN=NCAPD3
  LogFC CNDD3_HUMAN: -2.052
Protein P42765 GN=ACAA2
  LogFC THIM_HUMAN: 1.09
Protein P46013
  Direction KI67_HUMAN: Down
  LogFC KI67_HUMAN: -1.787
Protein P46100 GN=ATRX
  LogFC ATRX_HUMAN: -0.9089
Protein P46199
  Direction IF2M_HUMAN: Down
  LogFC IF2M_HUMAN: -0.8269
Protein P46734 GN=MAP2K3
  LogFC MP2K3_HUMAN: 1.1042
Protein P46977
  Direction STT3A_HUMAN: Down
  LogFC STT3A_HUMAN: -0.5679
Protein P47712 GN=PLA2G4A
  LogFC PA24A_HUMAN: 2.918
Protein P47813 GN=EIF1AX
  LogFC IF1AX_HUMAN: 0.7555
Protein P48960
  Direction AGRE5_HUMAN: Down
  LogFC AGRE5_HUMAN: -1.142
Protein P49427 GN=CDC34
  LogFC UB2R1_HUMAN: 1.5155
Protein P49590
  Direction SYHM_HUMAN: Down
  LogFC SYHM_HUMAN: -1.4939
Protein P49754 GN=VPS41
  LogFC VPS41_HUMAN: 1.216
Protein P49790
  Direction NU153_HUMAN: Down
  LogFC NU153_HUMAN: -1.0035
Protein P49916
  Direction DNLI3_HUMAN: Down
  LogFC DNLI3_HUMAN: -1.6
Protein P50150 GN=GNG4
  LogFC GBG4_HUMAN: 2.6107
Protein P50454
  Direction SERPH_HUMAN: Down
  LogFC SERPH_HUMAN: -1.017
Protein P50748
  Direction KNTC1_HUMAN: Down
  LogFC KNTC1_HUMAN: -0.8446
Protein P50895 GN=BCAM
  LogFC BCAM_HUMAN: 1.4044
Protein P51178 GN=PLCD1
  LogFC PLCD1_HUMAN: 0.5988
Protein P51531 GN=SMARCA2
  LogFC SMCA2_HUMAN: -1.3906
Protein P51532
  Direction SMCA4_HUMAN: Down
  LogFC SMCA4_HUMAN: -1.513
Protein P51580 GN=TPMT
  LogFC TPMT_HUMAN: 1.506
Protein P51617 GN=IRAK1
  LogFC IRAK1_HUMAN: -0.8883
Protein P51674
  Direction GPM6A_HUMAN: Down
  LogFC GPM6A_HUMAN: -2.493
Protein P51692
  Direction STA5B_HUMAN: Down
  LogFC STA5B_HUMAN: -2.183
Protein P51805 GN=PLXNA3
  LogFC PLXA3_HUMAN: 0.8663
Protein P51946
  Direction CCNH_HUMAN: Down
  LogFC CCNH_HUMAN: -0.7175
Protein P51965 GN=UBE2E1
  LogFC UB2E1_HUMAN: -1.604
Protein P52292
  Direction IMA1_HUMAN: Down
  LogFC IMA1_HUMAN: -0.7516
Protein P52799 GN=EFNB2
  LogFC EFNB2_HUMAN: 1.665
Protein P53367 GN=ARFIP1
  LogFC ARFP1_HUMAN: 1.754
Protein P53396
  Direction ACLY_HUMAN: Down
  LogFC ACLY_HUMAN: -0.3852
Protein P53794
  Direction SC5A3_HUMAN: Down
  LogFC SC5A3_HUMAN: -1.548
Protein P53814 GN=SMTN
  LogFC SMTN_HUMAN: -1.694
Protein P54652 GN=HSPA2
  LogFC HSP72_HUMAN: 3.712
Protein P54920 GN=NAPA
  LogFC SNAA_HUMAN: 0.6489
Protein P55010
  Direction IF5_HUMAN: Down
  LogFC IF5_HUMAN: -0.5429
Protein P55011 GN=SLC12A2
  LogFC S12A2_HUMAN: 0.5141
Protein P55060 GN=CSE1L
  LogFC XPO2_HUMAN: -0.4776
Protein P55061 GN=TMBIM6
  LogFC BI1_HUMAN: -0.6524
Protein P56270
  Direction MAZ_HUMAN: Down
  LogFC MAZ_HUMAN: -1.733
Protein P60059
  Direction SC61G_HUMAN: Down

Reference: article PMC11971462, “Generation and validation of a novel multitarget small molecule in glioblastoma” (Cell Death & Disease, 2025)
